Test results as given in ChEMBL document CHEMBL2202954, “The effect of PLC-γ2 inhibitors on the growth of human tumour cells” (2012).

Tests used:
Format in all cases: functional
[1] = system: MDA-MB-468; assay: Cytotoxicity against human MDA-MB-468 cells assessed as cellular growth at 10 uM by SRB assay
[2] = system: T47D; assay: Cytotoxicity against human T47D cells assessed as cellular growth at 10 uM by SRB assay
[3] = system: BT-549; assay: Cytotoxicity against human BT549 cells assessed as cellular growth at 10 uM by SRB assay
[4] = system: Hs-578T; assay: Cytotoxicity against human Hs578T cells assessed as cellular growth at 10 uM by SRB assay
[5] = system: MDA-MB-231; assay: Cytotoxicity against human MDA-MB-231 cells assessed as cellular growth at 10 uM by SRB assay
[6] = system: MCF7; assay: Cytotoxicity against human MCF7 cells assessed as cellular growth at 10 uM by SRB assay
[7] = system: DU-145; assay: Cytotoxicity against human DU145 cells assessed as cellular growth at 10 uM by SRB assay
[8] = system: UO-31; assay: Cytotoxicity against human UO31 cells assessed as cellular growth at 10 uM by SRB assay
[9] = system: PC-3; assay: Cytotoxicity against human PC3 cells assessed as cellular growth at 10 uM by SRB assay
[10] = system: TK-10; assay: Cytotoxicity against human TK10 cells assessed as cellular growth at 10 uM by SRB assay
[11] = system: SN12C; assay: Cytotoxicity against human SN12C cells assessed as cellular growth at 10 uM by SRB assay
[12] = system: RXF 393; assay: Cytotoxicity against human RXF393 cells assessed as cellular growth at 10 uM by SRB assay
[13] = system: ACHN; assay: Cytotoxicity against human ACHN cells assessed as cellular growth at 10 uM by SRB assay
[14] = system: CAKI-1; assay: Cytotoxicity against human Caki1 cells assessed as cellular growth at 10 uM by SRB assay
[15] = system: A498; assay: Cytotoxicity against human A498 cells assessed as cellular growth at 10 uM by SRB assay
[16] = system: 786-0; assay: Cytotoxicity against human 786-0 cells assessed as cellular growth at 10 uM by SRB assay
[17] = system: SK-OV-3; assay: Cytotoxicity against human SKOV3 cells assessed as cellular growth at 10 uM by SRB assay
[18] = Cytotoxicity against human NCI-ADR-RES cells assessed as cellular growth at 10 uM by SRB assay
[19] = system: OVCAR-8; assay: Cytotoxicity against human OVCAR8 cells assessed as cellular growth at 10 uM by SRB assay
[20] = system: OVCAR-5; assay: Cytotoxicity against human OVCAR5 cells assessed as cellular growth at 10 uM by SRB assay
[21] = system: OVCAR-3; assay: Cytotoxicity against human OVCAR3 cells assessed as cellular growth at 10 uM by SRB assay
[22] = system: IGROV-1; assay: Cytotoxicity against human IGROV1 cells assessed as cellular growth at 10 uM by SRB assay
[23] = system: UACC-62; assay: Cytotoxicity against human UACC62 cells assessed as cellular growth at 10 uM by SRB assay
[24] = system: UACC-257; assay: Cytotoxicity against human UACC257 cells assessed as cellular growth at 10 uM by SRB assay
[25] = system: SK-MEL-5; assay: Cytotoxicity against human SK-MEL-5 cells assessed as cellular growth at 10 uM by SRB assay
[26] = system: SK-MEL-28; assay: Cytotoxicity against human SK-MEL-28 cells assessed as cellular growth at 10 uM by SRB assay
[27] = system: SK-MEL-2; assay: Cytotoxicity against human SK-MEL-2 cells assessed as cellular growth at 10 uM by SRB assay
[28] = system: MDA-MB-435; assay: Cytotoxicity against human MDA-MB-435 cells assessed as cellular growth at 10 uM by SRB assay
[29] = system: M14; assay: Cytotoxicity against human M14 cells assessed as cellular growth at 10 uM by SRB assay
[30] = system: Malme-3M; assay: Cytotoxicity against human MALME-3M cells assessed as cellular growth at 10 uM by SRB assay
[31] = system: LOX IMVI; assay: Cytotoxicity against human LOXIMVI cells assessed as cellular growth at 10 uM by SRB assay
[32] = system: U-251; assay: Cytotoxicity against human U251 cells assessed as cellular growth at 10 uM by SRB assay
[33] = system: SNB-75; assay: Cytotoxicity against human SNB75 cells assessed as cellular growth at 10 uM by SRB assay
[34] = system: SNB-19; assay: Cytotoxicity against human SNB19 cells assessed as cellular growth at 10 uM by SRB assay
[35] = system: SF-539; assay: Cytotoxicity against human SF539 cells assessed as cellular growth at 10 uM by SRB assay
[36] = system: SF-268; assay: Cytotoxicity against human SF268 cells assessed as cellular growth at 10 uM by SRB assay
[37] = system: SW-620; assay: Cytotoxicity against human SW620 cells assessed as cellular growth at 10 uM by SRB assay
[38] = system: KM12; assay: Cytotoxicity against human KM12 cells assessed as cellular growth at 10 uM by SRB assay
[39] = system: HT-29; assay: Cytotoxicity against human HT-29 cells assessed as cellular growth at 10 uM by SRB assay
[40] = system: HCT-15; assay: Cytotoxicity against human HCT15 cells assessed as cellular growth at 10 uM by SRB assay
[41] = system: HCT-116; assay: Cytotoxicity against human HCT116 cells assessed as cellular growth at 10 uM by SRB assay
[42] = system: HCC 2998; assay: Cytotoxicity against human HCC2998 cells assessed as cellular growth at 10 uM by SRB assay
[43] = system: NCI-H522; assay: Cytotoxicity against human NCI-H522 cells assessed as cellular growth at 10 uM by SRB assay
[44] = system: COLO 205; assay: Cytotoxicity against human COLO205 cells assessed as cellular growth at 10 uM by SRB assay
[45] = system: NCI-H460; assay: Cytotoxicity against human NCI-H460 cells assessed as cellular growth at 10 uM by SRB assay
[46] = system: NCI-H322M; assay: Cytotoxicity against human NCI-H322M cells assessed as cellular growth at 10 uM by SRB assay
[47] = system: NCI-H226; assay: Cytotoxicity against human NCI-H226 cells assessed as cellular growth at 10 uM by SRB assay
[48] = system: NCI-H23; assay: Cytotoxicity against human NCI-H23 cells assessed as cellular growth at 10 uM by SRB assay
[49] = system: HOP-92; assay: Cytotoxicity against human HOP92 cells assessed as cellular growth at 10 uM by SRB assay
[50] = system: EKVX; assay: Cytotoxicity against human EKVX cells assessed as cellular growth at 10 uM by SRB assay
[51] = system: HOP-62; assay: Cytotoxicity against human HOP62 cells assessed as cellular growth at 10 uM by SRB assay
[52] = system: A549; assay: Cytotoxicity against human A549 cells assessed as cellular growth at 10 uM by SRB assay
[53] = system: SR; assay: Cytotoxicity against human SR cells assessed as cellular growth at 10 uM by SRB assay
[54] = system: MOLT-4; assay: Cytotoxicity against human MOLT4 cells assessed as cellular growth at 10 uM by SRB assay
[55] = system: RPMI-8226; assay: Cytotoxicity against human RPMI8226 cells assessed as cellular growth at 10 uM by SRB assay
[56] = system: K562; assay: Cytotoxicity against human K562 cells assessed as cellular growth at 10 uM by SRB assay
[57] = system: HL-60(TB); assay: Cytotoxicity against human HL-60(TB) cells assessed as cellular growth at 10 uM by SRB assay
[58] = system: CCRF-CEM; assay: Cytotoxicity against human CCRF-CEM cells assessed as cellular growth at 10 uM by SRB assay
[59] = system: OVCAR-4; assay: Cytotoxicity against human OVCAR4 cells assessed as cellular growth at 10 uM by SRB assay
[60] = system: SF-295; assay: Cytotoxicity against human SF295 cells assessed as cellular growth at 10 uM by SRB assay

Work on `O=C(Nc1ccc2oc(=O)ccc2c1)c1ccc(-c2ccc(Br)cc2)o1` yielded an Activity [1] of 122.28%, an Activity [2] of 100.95% and an Activity [3] of 118.79%. It also gave an Activity [4] of 104.83%, an Activity [5] of 104.85% and an Activity [6] of 98.67%. It also gave an Activity [7] of 109.38%, an Activity [8] of 127.52% and an Activity [9] of 111.02%. For the same compound, the Activity [10] was 102.05%, the Activity [11] was 99.06% and the Activity [12] was 112.24%. It also gave an Activity [13] of 121.66%, an Activity [14] of 183.36% and an Activity [15] of 101.8%. It also gave an Activity [16] of 95.42%, an Activity [17] of 112.03% and an Activity [18] of 101.15%. The Activity [19] was 101.05%, the Activity [20] was 121.34% and the Activity [21] was 125.42%. It also gave an Activity [22] of 126.49%, an Activity [23] of 104.75% and an Activity [24] of 114.76%. The Activity [25] was 100.82%, the Activity [26] was 119.2% and the Activity [27] was 121.49%. It also gave an Activity [28] of 112.48%, an Activity [29] of 114.52% and an Activity [30] of 130.92%. The Activity [31] was 105.3%, the Activity [32] was 98.16% and the Activity [33] was 104.41%. It also gave an Activity [34] of 105.93%, an Activity [35] of 101.06% and an Activity [36] of 106.9%. The Activity [37] was 107.9%, the Activity [38] was 114.03% and the Activity [39] was 108.43%. The Activity [40] was 108.33%, the Activity [41] was 103.94% and the Activity [42] was 112.96%. The Activity [43] was 105.32%, the Activity [44] was 124.46% and the Activity [45] was 100.9%. For the same compound, the Activity [46] was 154.44%, the Activity [47] was 112.35% and the Activity [48] was 103.68%. The Activity [49] was 97.44%, the Activity [50] was 113.5% and the Activity [51] was 106.69%. The Activity [52] was 100.63%, the Activity [53] was 102.2% and the Activity [54] was 96.93%. For the same compound, the Activity [55] was 108.92%, the Activity [56] was 95.77% and the Activity [57] was 101.52%. For the same compound, the Activity [58] was 103.74%.

`COc1ccc(S(=O)(=O)n2ccc(-c3ccc4c(c3)CCC(C)(C)O4)n2)cc1` gave an Activity [1] of 36.58%, an Activity [2] of 46.7% and an Activity [3] of 65.47%. The Activity [4] was 97.76%, the Activity [5] was 87.67% and the Activity [6] was 73.48%. The Activity [8] was 78.12%, the Activity [9] was 78.05% and the Activity [10] was 68.22%. It also gave an Activity [11] of 97.48%, an Activity [12] of 110.14% and an Activity [13] of 104.15%. For the same compound, the Activity [14] was 63.3%, the Activity [15] was 89.14% and the Activity [16] was 67.61%. For the same compound, the Activity [17] was 90.41%, the Activity [18] was 57.3% and the Activity [19] was 83.81%. The Activity [59] was 52.32%, the Activity [20] was 108.8% and the Activity [21] was 81.18%. It also gave an Activity [22] of 90.82%, an Activity [23] of 50.48% and an Activity [24] of 57.41%. For the same compound, the Activity [25] was 42.57%, the Activity [26] was 98.27% and the Activity [27] was 84.41%. For the same compound, the Activity [28] was 74.3%, the Activity [29] was 86.46% and the Activity [30] was 109.7%. For the same compound, the Activity [31] was 79.45%, the Activity [32] was 84.18% and the Activity [33] was 83.99%. It also gave an Activity [34] of 87.12%, an Activity [35] of 102.86% and an Activity [60] of 47.66%. For the same compound, the Activity [36] was 94.69%, the Activity [37] was 90.28% and the Activity [38] was 81.91%. For the same compound, the Activity [39] was 84.48%, the Activity [40] was 97.58% and the Activity [41] was 68.33%. It also gave an Activity [42] of 88.92%, an Activity [43] of 55.57% and an Activity [44] of 107.28%. For the same compound, the Activity [45] was 75.37%, the Activity [46] was 101% and the Activity [47] was 71.38%. It also gave an Activity [48] of 59.58%, an Activity [49] of 61.38% and an Activity [50] of 51.56%. It also gave an Activity [51] of 112.43%, an Activity [52] of 73.96% and an Activity [54] of 65.89%. It also gave an Activity [55] of 49.25%, an Activity [56] of 55.64% and an Activity [57] of 60.02%. It also gave an Activity [58] of 58.86%.
